{"source": "patent US9808954B2", "about": "“Composition of a timber formulation comprising Cu salts and organic cyclic ingredients for the preservation of timber for decks” (Rutgers Organics GmbH, priority 2014, dated 2017)", "key": {"coniophora puteana": {"system": "coniophora puteana", "experiment": "EN113 test after EN84 washing, pine timber, coniophora puteana", "format": "cell-based", "description": "(§1) Timber pieces were positioned in a treating vessel. Over a period of 30 minutes a pressure of 0.1 bar was applied. The treating solution containing a Product was sucked into the vessel. Then the pressure in the vessel was increased to 10 bar at 25° C. for 90 minutes. Afterwards the pressure was set to ambient pressure and the remainder of the treating solution was removed. The impregnated timber pieces were dried at ambient temperature.\n(§2) In both tables 13 and 14 the standard applied is EN113. Prior to EN113, the timber was washed according to EN84. The type of timber used was pine.\n(§3) Tables 13 and 14 show the average retention of the active ingredient (AI) in Product C when it is exposed to both “poria placenta” (table 13) and “coniophora puteana” (table 14). Comparisons are also made with retention values of DPAB and the azol (triadimefon) in the timber. Average AI retention values are required in order to pass the EN113 Standard.\n(§4) In both tables 15 and 16 the standard applied is EN113. Prior to EN113, the timber was washed according to EN84. The type of timber used was pine.\n(§5) As for product C, tables 15 and 16 show the average retention of the active ingredient (AI) in Product D when it is exposed to both “poria placenta” (table 15) and “coniophora puteana” (table 16). Comparisons are also made with retention values of DPAB and the azol (cyproconazol) in the timber. […]"}, "poria placenta": {"system": "poria placenta", "experiment": "EN113 test after EN84 washing, pine timber, poria placenta", "format": "cell-based", "description": "as §1, §2, §3, §4, §5"}}}
{"substance": "di-decyl-poly-oxethyl-ammoninum borate [DPAB TGAI]", "values": [{"measurement": "Average DPAB retention in timber", "setting": "coniophora puteana; coniophora puteana (Table 14)", "value": 7.40, "unit": "kg/m^3"}, {"measurement": "Average DPAB retention in timber", "setting": "coniophora puteana; coniophora puteana (Table 16)", "value": 7.40, "unit": "kg/m^3"}, {"measurement": "Average DPAB retention in timber", "setting": "poria placenta; poria placenta (Table 13)", "value": 4.50, "unit": "kg/m^3"}, {"measurement": "Average DPAB retention in timber", "setting": "poria placenta; poria placenta (Table 15)", "value": 4.50, "unit": "kg/m^3"}]}
